# Source: patent publication US20130123287A1, “CONTROL AGENT FOR SOFT ROT AND CONTROL METHOD FOR THE SAME” (ISHIHARA SANGYO KAISHA, LTD., priority 2010, published 2013)
# Assays:
# [1] = test system: bacteria causing the soft rot (Erwinia carotovora); test: Inhibition test of growth of bacteria causing soft rot, Reference Test Example 6; assay type: cell-based; conditions: for formed colonies (growth state), grade: PSA medium, 27 degrees Celsius, 3 days
# Text: (§1) An inhibition test of the growth of bacteria causing the soft rot was done, when a control agent was directly applied to the bacteria causing the soft rot. A given volume of each pesticide of fludioxonil (Seibia FL [trade name] manufactured by Syngenta Japan K.K.), iminoctadine albesilate salt (Bellkute WP [trade name], manufactured by Nippon Soda Co., Ltd.), iprodione (Rovral WP [trade name] manufactured by Bayer Crop Science Co., Ltd.), and streptomycin (Mycin Wettable powder [trade name] manufactured by Hokko Chemical Industry Co., Ltd.) was added together with a suspension of the bacteria causing the soft rot (Erwinia carotovora) to a preliminarily dissolved PSA culture medium (55 degrees Celsius) for subsequent thorough agitation, which was then spread on a plate for culturing at 27 degrees Celsius for 3 days, to examine the growth state. Subsequently, the formed colonies were examined according to the following three grades. • +: at the same level as the level of non-treated lot.
# (§2) Plus or minus: apparently less than the colonies of the non-treated lot. • −: almost no colonies observed.
# [2] = test system: soft rot of Chinese cabbage; test: Test for controlling soft rot of Chinese cabbage, Example 3 / Comparative Example 3 (field, cultivar Muso); assay type: in vivo; conditions: 500 g ai/10 a, 150 L/10 a sprayed onto planting holes before planting, 51 days after start
# Text: (§3) Frequency of the disease=[sigma(number of plants with the onset of the disease at each severity level*index of the onset of the disease)/(plants examined*4)]*100
# (§4) Disease control value=[1-(frequency of the disease in the treated lot/frequency of the disease in the non-treated lot)]*100
# (§5) • 0: No onset • 1: Onset in some of outer leaves (shippable) • 2: Onset in outer leaves and some of head leaves (by removing damaged parts, the resulting cabbage can be shipped as small cabbage but is ranked as grade B). • 3: Most of head leaves are inflicted with the onset of the disease or with severer damages (not shippable) • 4: Whole cabbage plant is inflicted with the onset of the disease and is dead.
# 442 g/l kresoxim-methyl (STROBY FLOWABLE [trade name], manufactured by BASF) was adjusted to 500 g ai/10a (0.5 g/m^2, 1131 ml Product/10a) as the amount of the active ingredient and to 150 L/10a as the volume of diluent water. […]
# (§6) 51 days after the start of the tests, all the plants in each lot were examined about the severity level of the disease to assess the frequency of the disease and the disease control value. The frequency of the disease and the disease control value were determined in the same manner as described above. Because soft rot is a disease with damages hardly controlled, herein, even a chemical at the level C determined by the tests of the effects can practically be used.
# [3] = test system: bacteria causing the soft rot (Erwinia carotovora); test: Inhibition test of growth of bacteria causing soft rot, Reference Test Example 1; assay type: cell-based; conditions: for formed colonies (growth state), grade: PSA medium, 25 degrees Celsius, 4 days
# Procedure: as §1, with “cyazofamid (RANMAN 400SC” for “fludioxonil (Seibia FL”, “Ishihara Sangyo Kaisha, Ltd.), amisulbrom (LEIMAY FLOWABLE” for “Syngenta Japan K.K.), iminoctadine albesilate salt (Bellkute WP”, “Nissan Chemical Industries, Ltd.)” for “Nippon Soda Co., Ltd.), iprodione (Rovral WP [trade name] manufactured by Bayer Crop Science Co., Ltd.),”, “25” for “27”, “4” for “3”
# as §2
# [4] = test system: soft rot of Chinese cabbage; test: Test for controlling soft rot of Chinese cabbage, Example 2 / Comparative Example 2 (field, cultivar Harebutai 65); assay type: in vivo; conditions: 500 g ai/10 a, 150 L/10 a sprayed onto planting holes before planting, 64 days after start
# Text: as §3, §4, §5
# 200 g/l Azoxystrobin (Amistar 20 FLOWABLE [trade name], manufactured by Syngenta Japan K.K.) was adjusted to 500 g ai/10a (0.5 g/m^2, 2500 ml Product/10a) as the amount of the active ingredient and to 150 L/10a as the volume of diluent water.
# 30% w/w triflumizol (TRIFUMIN WP [trade name], manufactured by Nippon Soda Co., Ltd.) was adjusted to 500 g ai/10a (0.5 g/m^2, 1667 g Product/10a) as the amount of the active ingredient and to 150 L/10a as the volume of diluent water.
# 100 g/1 cyazofamid (RANMAN PLOWABLE [trade name], manufactured by Ishihara Sangyo Kaisha, Ltd.) was adjusted to 500 g ai/10a (0.5 g/m^2, 5000 ml Product/10a) as the amount of the active ingredient and to 150 L/10a as the volume of diluent water.
# 50% w/w penthiopyrad (GAIA WG [trade name], manufactured by Mitsui Chemicals Agro, Inc.) was adjusted to 500 g ai/10a (0.5 g/m^2, 1000 g Product/10a) as the amount of the active ingredient and to 150 L/10a as the volume of diluent water.
# 50 g/l flusulfamide (SCABLOCK SC [trade name], manufactured by Mitsui Chemicals Agro, Inc.) was adjusted to 500 g ai/10a (0.5 g/m^2, 10000 ml Product/10a) as the amount of the active ingredient and to 150 L/10a as the volume of diluent water.
# 400 g/1 chlorothalonil (Daconil 1000 [the trade name], manufactured by Sumitomo Chemical, Limited) was adjusted to 1000 g ai/10a (1.0 g/m^2, 2500 ml Product/10a) as the amount of the active ingredient and to 150 L/10a as the volume of diluent water.
# (§7) After spreading an agricultural mulch-sheet and opening planting holes (diameter of about 5 cm) for permanent planting through the mulch-sheet, the spray solutions prepared as described above were sprayed onto the planting holes such that the amount of treated active ingredient of chlorothalonil was 1.0 g/m^2 (150 L per 10a) and the amount of each of the remaining spray solutions was 0.5 g/m^2 (150 L per 10a), followed by air-drying; subsequently, seedlings of Chinese cabbage (cultivar Harebutai 65) grown for 4 weeks in cell mold trays (128 holes/nursery box) were planted such that 19 seedlings were planted in each test lot having an area of 2.4 m^2 with two replications.
# (§8) Preparation was performed by diluting streptomycin (Mycin 20 wettable powder solution [under the trade name] manufactured by Hokko Chemical Industry Co., Ltd.) with water to 1/1000.
# (§9) In a field spread with the agricultural mulch-sheet, Chinese cabbage seedlings (cultivar: Harebutai 65) grown by the same method as in Example 2 were planted by the same method as in Example 2, for spraying the spray solution of streptomycin prepared above in (1) (at each spray volume of 300 L/10a) twice (27 days and 48 days after the planting of the seedlings) on the stems and leaves with a sprayer.
# as §6, with “64” for “51”, “In the same manner as described above, the” for “The”, “determined. Additionally,” for “determined in the same manner as described above. Because”, “so” for “herein,”
# [5] = test system: soft rot of Chinese cabbage; test: Test for controlling soft rot of Chinese cabbage, Example 1 / Comparative Example 1 (field, cultivar Muso); assay type: in vivo; conditions: 250 g ai/10 a, 150 L/10 a sprayed onto planting holes before planting, 54 days after start
# Procedure: 200 g/l Azoxystrobin (Amistar 20 FLOWABLE [trade name], manufactured by Syngenta Japan K.K.) was adjusted to 250 g ai/10a (0.25 g/m^2, 1250 ml Product/10a) as the amount of the active ingredient and to 150 L/10a as the volume of diluent water.
# 100 g/l Cyazofamid (RANMAN FLOWABLE [trade name], manufactured by Ishihara Sangyo Kaisha, Ltd.) was adjusted to 250 g ai/10a (0.25 g/m^2, 2500 ml Product/10a) as the amount of the active ingredient and to 150 L/10a as the volume of diluent water.
# 177 g/l Amisulbrom (LEIMAY FLOWABLE [trade name], manufactured by Nissan Chemical Industries, Ltd.) was adjusted individually to 250 g ai/10a (0.25 g/m^2, 1412 ml Product/10a) as the amount of the active ingredient and to 150 L/10a as the volume of diluent water.
# as §7, with “about 9” for “about 5”, “of each spray solution” for “of chlorothalonil”, “was 0.25” for “was 1.0 g/m^2 (150 L per 10a) and the amount of each of the remaining spray solutions was 0.5”, “cabbage (cultivar: Muso)” for “cabbage (cultivar Harebutai 65)”, “that 30” for “that 19”, “of 6” for “of 2.4”
# as §8
# as §9, with “Muso)” for “Harebutai 65)”, “1” for “2”, “1,” for “2,”, “three times (13 days, 20” for “twice (27”, “27” for “48”, “leaves.” for “leaves with a sprayer.”
# 54 days after the start of the tests, all the plants in each lot were examined about the severity level of the disease; according to the following equations, the ratio of the plants with the onset of the disease, the frequency of the disease, and the disease control value were calculated to determine and rank the effects at A to D levels. Because soft rot is a disease with damages hardly controlled, herein, even a chemical at the level C determined by the tests of the effects can practically be used.
# Ratio of the plants with the onset of the disease=(Number of plants with the onset of the disease/number of plants examined)*100
# Frequency of the disease=[sigma(number of plants with the onset of the disease at each severity level*index of the onset of the disease)/(plants examined*4)]*100 […]
# [6] = active ingredient concentration of 1,000 ppm
Compound,"formed colonies (growth state), grade ([1]; 100 ppm active ingredient)","formed colonies (growth state), grade ([1]; 500 ppm active ingredient)","formed colonies (growth state), grade ([1]; 1000 ppm active ingredient)","inhibition of growth of Erwinia carotovora (in words) [1, 6]",Determination of effect [2],"formed colonies (growth state), grade ([3]; 100 ppm active ingredient)","formed colonies (growth state), grade ([3]; 500 ppm active ingredient)","formed colonies (growth state), grade ([3]; 1000 ppm active ingredient)","inhibition of growth of Erwinia carotovora (in words) [3, 6]",Determination of effect [4],Determination of effect [5]
"1,1′-iminodi(octamethylene)diguanidinium=tris(alkylbenzenesulfonate) [Iminoctadine albesilate salt]","+, +","+, +","+, +",never inhibited the growth,B (B: Effective (41 to 60 disease control value)),,,,,,
"Cc1ccc(-c2c(Cl)nc(C#N)n2S(=O)(=O)N(C)C)cc1 [Cyazofamid, 4-chloro-2-cyano-N,N-dimethyl-5-p-tolylimidazole-1-sulfoneamide]",,,,,,"+, +","+, +","+, +",never inhibited the growth,C (C: Effective at low level (21 to 40 disease control value)),D (D: Poorly effective (20 or smaller disease control value))
